Test system: MV-4-11 cells
Assay: Gene expression microarray analysis (Affymetrix PrimeView) and GSEA
Type: cell-based, human
Design: RFU PODN (11730768_x_at) / Fold change /veh PODN (11730768_x_at) / RFU LINC00158 (11744669_a_at) / Fold change /veh LINC00158 (11744669_a_at) / RFU DUSP10 (11751237_a_at) / Fold change /veh DUSP10 (11751237_a_at) / RFU ID3 (11757404_x_at) / Fold change /veh ID3 (11757404_x_at) / RFU PLEKHG5 (11737974_s_at) / Fold change /veh PLEKHG5 (11737974_s_at) / RFU LRRC4B (11730491_at) / Fold change /veh LRRC4B (11730491_at) / RFU GIMAP4 (11747438_a_at) / Fold change /veh GIMAP4 (11747438_a_at) / RFU KRT8 (11758183_x_at) / Fold change /veh KRT8 (11758183_x_at) / RFU CNN1 (11734310_a_at) / Fold change /veh CNN1 (11734310_a_at) / RFU VPS37D (11726825_at) / Fold change /veh VPS37D (11726825_at) / RFU C10orf10 (11716522_x_at) / Fold change /veh C10orf10 (11716522_x_at) / RFU KIR2DL2 /// KIR2DL4 /// KIR2DL5A /// KIR2DL5B /// KIR2DS1 /// KIR2DS2 /// KIR2DS3 /// KIR2DS4 /// KIR3DL3 /// KIR3DL3 /// KIR3DS1 (11738374_at) / Fold change /veh KIR2DL2 /// KIR2DL4 /// KIR2DL5A /// KIR2DL5B /// KIR2DS1 /// KIR2DS2 /// KIR2DS3 /// KIR2DS4 /// KIR3DL3 /// KIR3DL3 /// KIR3DS1 (11738374_at) / RFU C1QL1 (11718748_at) / Fold change /veh C1QL1 (11718748_at) / RFU TMPRSS4 (11747572_a_at) / Fold change /veh TMPRSS4 (11747572_a_at) / RFU HAMP (11756126_x_at) / Fold change /veh HAMP (11756126_x_at) / RFU RNFT2 (11725882_a_at) / Fold change /veh RNFT2 (11725882_a_at) / RFU NR4A2 (11747474_a_at) / Fold change /veh NR4A2 (11747474_a_at) / RFU ABCC12 (11746883_a_at) / Fold change /veh ABCC12 (11746883_a_at) / RFU TMEM136 (11760407_x_at) / Fold change /veh TMEM136 (11760407_x_at) / RFU CLDN22 /// WWC2 (11732394_at) / Fold change /veh CLDN22 /// WWC2 (11732394_at) / RFU HLA-DPB1 (11760878_x_at) / Fold change /veh HLA-DPB1 (11760878_x_at) / RFU SPINT1 (11716480_a_at) / Fold change /veh SPINT1 (11716480_a_at) / RFU GAP43 (11754022_s_at) / Fold change /veh GAP43 (11754022_s_at) / RFU A4GNT (11735810_at) / Fold change /veh A4GNT (11735810_at) / RFU PRB3 (11715151_x_at) / Fold change /veh PRB3 (11715151_x_at) / RFU TUBB4B (11761932_at) / Fold change /veh TUBB4B (11761932_at) / RFU CAPN14 (11732068_a_at) / Fold change /veh CAPN14 (11732068_a_at) / RFU TMCC2 (11721928_a_at) / Fold change /veh TMCC2 (11721928_a_at) / RFU IRGQ (11745062_a_at) / Fold change /veh IRGQ (11745062_a_at) / RFU FAM174B (11720279_a_at) / Fold change /veh FAM174B (11720279_a_at) / RFU TMPRSS4 (11748680_a_at) / Fold change /veh TMPRSS4 (11748680_a_at) / RFU FAM212B (11763350_a_at) / Fold change /veh FAM212B (11763350_a_at) / RFU PLEKHG5 (11743358_a_at) / Fold change /veh PLEKHG5 (11743358_a_at) / RFU ZSCAN30 (11745921_a_at) / Fold change /veh ZSCAN30 (11745921_a_at) / RFU CMKLR1 (11741424_a_at) / Fold change /veh CMKLR1 (11741424_a_at) / RFU LOC101060620 /// MAPK8IP1 (11723275_at) / Fold change /veh LOC101060620 /// MAPK8IP1 (11723275_at) / RFU SPTSSB (11747773_x_at) / Fold change /veh SPTSSB (11747773_x_at) / RFU PRSS12 (11739890_at) / Fold change /veh PRSS12 (11739890_at) / RFU BIN1 (11741810_x_at) / Fold change /veh BIN1 (11741810_x_at) / RFU WNT11 (11732464_a_at) / Fold change /veh WNT11 (11732464_a_at) / RFU C10orf10 (11716521_a_at) / Fold change /veh C10orf10 (11716521_a_at) / RFU C5orf56 (11738089_at) / Fold change /veh C5orf56 (11738089_at) / RFU CYB561 (11721691_x_at) / Fold change /veh CYB561 (11721691_x_at) / RFU ANKRD19P (11752326_a_at) / Fold change /veh ANKRD19P (11752326_a_at) / RFU OR2T12 /// OR2T33 /// OR2T8 (11738714_s_at) / Fold change /veh OR2T12 /// OR2T33 /// OR2T8 (11738714_s_at) / RFU VCAN (11748164_a_at) / Fold change /veh VCAN (11748164_a_at) / RFU JSRP1 (11732532_at) / Fold change /veh JSRP1 (11732532_at) / RFU KRTAP10-11 (11738290_x_at) / Fold change /veh KRTAP10-11 (11738290_x_at) / RFU MYO3A (11730013_a_at) / Fold change /veh MYO3A (11730013_a_at) / RFU EBF3 (11725865_a_at) / Fold change /veh EBF3 (11725865_a_at) / RFU CAMK2N1 (11719241_x_at) / Fold change /veh CAMK2N1 (11719241_x_at) / RFU C5orf56 (11738088_a_at) / Fold change /veh C5orf56 (11738088_a_at) / RFU OLFML3 (11715873_a_at) / Fold change /veh OLFML3 (11715873_a_at) / RFU LOC100653217 /// NTM (11731650_a_at) / Fold change /veh LOC100653217 /// NTM (11731650_a_at) / RFU MAPK11 (11762145_a_at) / Fold change /veh MAPK11 (11762145_a_at) / RFU FIZ1 (11724087_x_at) / Fold change /veh FIZ1 (11724087_x_at) / RFU OASL (11726364_x_at) / Fold change /veh OASL (11726364_x_at) / RFU SOX15 (11748057_x_at) / Fold change /veh SOX15 (11748057_x_at) / RFU CD79A (11719716_a_at) / Fold change /veh CD79A (11719716_a_at) / RFU HIST1H1D (11736915_at) / Fold change /veh HIST1H1D (11736915_at) / RFU CASKIN2 (11723855_a_at) / Fold change /veh CASKIN2 (11723855_a_at) / RFU LOC730098 (11760151_x_at) / Fold change /veh LOC730098 (11760151_x_at) / RFU OR4N2 (11742367_at) / Fold change /veh OR4N2 (11742367_at) / RFU PRRT2 (11749266_a_at) / Fold change /veh PRRT2 (11749266_a_at) / RFU SNX32 (11753110_a_at) / Fold change /veh SNX32 (11753110_a_at) / RFU CDHR5 (11726645_a_at) / Fold change /veh CDHR5 (11726645_a_at) / RFU RCAN1 (11760418_a_at) / Fold change /veh RCAN1 (11760418_a_at) / RFU FAM167A (11723789_a_at) / Fold change /veh FAM167A (11723789_a_at) / RFU FAM26E (11764081_at) / Fold change /veh FAM26E (11764081_at) / RFU ISYNA1 (11749810_s_at) / Fold change /veh ISYNA1 (11749810_s_at) / RFU ACY1 (11761880_at) / Fold change /veh ACY1 (11761880_at) / RFU 11764098_at / Fold change /veh 11764098_at / RFU SAMD14 (11745864_x_at) / Fold change /veh SAMD14 (11745864_x_at) / RFU NPB (11741838_a_at) / Fold change /veh NPB (11741838_a_at) / RFU TMPRSS6 (11731388_a_at) / Fold change /veh TMPRSS6 (11731388_a_at) / RFU KRTAP10-2 (11738614_at) / Fold change /veh KRTAP10-2 (11738614_at) / RFU ARHGAP8 /// PRR5-ARHGAP8 (11727945_x_at) / Fold change /veh ARHGAP8 /// PRR5-ARHGAP8 (11727945_x_at) / RFU KRTAP5-7 /// NADSYN1 (11734609_at) / Fold change /veh KRTAP5-7 /// NADSYN1 (11734609_at) / RFU RASL12 (11751679_a_at) / Fold change /veh RASL12 (11751679_a_at) / RFU CDKN2B (11736163_a_at) / Fold change /veh CDKN2B (11736163_a_at) / RFU PRF1 (11729649_at) / Fold change /veh PRF1 (11729649_at) / RFU, ZNF638 /// ZNF638-IT1 / Fold change vs veh, ZNF638 /// ZNF638-IT1 / RFU, PANK3 / Fold change vs veh, PANK3 / RFU, SH3YL1 / Fold change vs veh, SH3YL1 / RFU, ZEB2 / Fold change vs veh, ZEB2 / RFU, NRIP1 / Fold change vs veh, NRIP1 / RFU, PTTG1IP / Fold change vs veh, PTTG1IP / RFU, CAPN2 / Fold change vs veh, CAPN2 / RFU, MED14 / Fold change vs veh, MED14 / RFU, SNORA58 / Fold change vs veh, SNORA58 / RFU, C1orf63 / Fold change vs veh, C1orf63 / RFU, LRRFIP1 / Fold change vs veh, LRRFIP1 / RFU, NDUFAF7 / Fold change vs veh, NDUFAF7 / RFU, SLC12A2 / Fold change vs veh, SLC12A2 / RFU, IBTK / Fold change vs veh, IBTK / RFU, ESF1 / Fold change vs veh, ESF1 / Fold change vs veh, TMEM50B / RFU, TAOK1 / Fold change vs veh, TAOK1 / RFU, ACBD3 / Fold change vs veh, ACBD3 / RFU, TMA16 / Fold change vs veh, TMA16 / RFU, RWDD3 / Fold change vs veh, RWDD3 / RFU, BCAT1 / Fold change vs veh, BCAT1 / RFU, EDEM3 / Fold change vs veh, EDEM3 / RFU, TMEM33 / Fold change vs veh, TMEM33 / RFU, WDR75 / Fold change vs veh, WDR75 / RFU, AHCTF1 / Fold change vs veh, AHCTF1 / RFU, TFRC / Fold change vs veh, TFRC / RFU, ZDHHC17 / Fold change vs veh, ZDHHC17 / RFU, NOM1 / Fold change vs veh, NOM1 / RFU, ARL8B / Fold change vs veh, ARL8B / RFU, ZBTB11 / Fold change vs veh, ZBTB11 / RFU, TAMM41 / Fold change vs veh, TAMM41 / RFU, KIAA1704 /// LOC100996395 / Fold change vs veh, KIAA1704 /// LOC100996395 / RFU, ING1 / Fold change vs veh, ING1 / RFU, TRMT61B / Fold change vs veh, TRMT61B / RFU, FUBP3 / Fold change vs veh, FUBP3 / RFU, TP53 / Fold change vs veh, TP53 / RFU, TNKS2 / Fold change vs veh, TNKS2 / RFU, ZFP14 / Fold change vs veh, ZFP14 / RFU, ACTR2 / Fold change vs veh, ACTR2 / RFU, PPP3R1 / Fold change vs veh, PPP3R1 / RFU, PIK3R1 / Fold change vs veh, PIK3R1 / RFU, HNRNPA1 / Fold change vs veh, HNRNPA1 / RFU, RNF170 / Fold change vs veh, RNF170 / RFU, ZNF28 / Fold change vs veh, ZNF28 / RFU, RNGTT / Fold change vs veh, RNGTT / RFU, OGT / Fold change vs veh, OGT / RFU, BRD1 / Fold change vs veh, BRD1 / RFU, MARS / Fold change vs veh, MARS / RFU, ZNF655 / Fold change vs veh, ZNF655 / RFU, FAHD1 / Fold change vs veh, FAHD1 / RFU, BDP1 / Fold change vs veh, BDP1 / RFU, LRRCC1 / Fold change vs veh, LRRCC1 / RFU, ARID1A / Fold change vs veh, ARID1A / RFU, ZNF146 / Fold change vs veh, ZNF146 / RFU, ZNF330 / Fold change vs veh, ZNF330 / RFU, GPN3 / Fold change vs veh, GPN3 / RFU, C9orf123 / Fold change vs veh, C9orf123 / RFU, N4BP2L2 / Fold change vs veh, N4BP2L2 / RFU, ARFIP1 / Fold change vs veh, ARFIP1 / RFU, FAM179B / Fold change vs veh, FAM179B / RFU, BCL10 / Fold change vs veh, BCL10 / RFU, UHRF1BP1L / Fold change vs veh, UHRF1BP1L / RFU, BET1 / Fold change vs veh, BET1 / RFU, CNOT2 / Fold change vs veh, CNOT2 / RFU, ZNF268 / Fold change vs veh, ZNF268 / Fold change vs veh, ZNF507 / RFU, DGCR2 / Fold change vs veh, DGCR2 / RFU, WDSUB1 / Fold change vs veh, WDSUB1 / Fold change vs veh, HSP90B1 /// MIR3652 / RFU, ADSS / Fold change vs veh, ADSS / RFU, GK / Fold change vs veh, GK / RFU, ZNF148 / Fold change vs veh, ZNF148 / RFU, TAF9 / Fold change vs veh, TAF9 / RFU, SLC1A5 / Fold change vs veh, SLC1A5 / RFU, SLMO2 / Fold change vs veh, SLMO2 / RFU, ABCC4 / Fold change vs veh, ABCC4 / RFU, LOC101060439 /// RAP1B / Fold change vs veh, LOC101060439 /// RAP1B / RFU, RFX7 / Fold change vs veh, RFX7 / RFU, GTPBP10 / Fold change vs veh, GTPBP10 / RFU, CNEP1R1 / Fold change vs veh, CNEP1R1 / RFU, BIVM-ERCC5 /// ERCC5 / Fold change vs veh, BIVM-ERCC5 /// ERCC5 / RFU, ILF3 / Fold change vs veh, ILF3 / RFU 11762660_at / Fold change /veh 11762660_at / RFU VCAN (11757783_s_at) / Fold change /veh VCAN (11757783_s_at) / RFU DDX43 (11728927_at) / Fold change /veh DDX43 (11728927_at) / RFU KRT8 (11758188_x_at) / Fold change /veh KRT8 (11758188_x_at) / RFU NKD1 (11759106_at) / Fold change /veh NKD1 (11759106_at) / RFU SRD5A1 (11742802_a_at) / Fold change /veh SRD5A1 (11742802_a_at) / RFU TPSAB1 /// TPSB2 (11721975_s_at) / Fold change /veh TPSAB1 /// TPSB2 (11721975_s_at) / RFU GSTM3 (11746129_a_at) / Fold change /veh GSTM3 (11746129_a_at) / RFU IL23R (11737362_x_at) / Fold change /veh IL23R (11737362_x_at) / RFU TMEM51 (11727254_a_at) / Fold change /veh TMEM51 (11727254_a_at) / RFU PIWIL2 (11732686_x_at) / Fold change /veh PIWIL2 (11732686_x_at) / RFU ORM1 (11744905_x_at) / Fold change /veh ORM1 (11744905_x_at) / RFU CCDC152 (11743942_at) / Fold change /veh CCDC152 (11743942_at) / RFU ECM1 (11717891_a_at) / Fold change /veh ECM1 (11717891_a_at) / RFU IL23R (11748794_a_at) / Fold change /veh IL23R (11748794_a_at) / RFU TNFAIP8L3 (11732012_x_at) / Fold change /veh TNFAIP8L3 (11732012_x_at) / RFU MBOAT4 (11741988_at) / Fold change /veh MBOAT4 (11741988_at) / RFU 11764193_at / Fold change /veh 11764193_at / RFU TMEM53 (11763286_at) / Fold change /veh TMEM53 (11763286_at) / RFU MAGEB2 (11727129_at) / Fold change /veh MAGEB2 (11727129_at) / RFU TMEM200A (11744735_a_at) / Fold change /veh TMEM200A (11744735_a_at) / RFU CCDC152 (11751479_a_at) / Fold change /veh CCDC152 (11751479_a_at) / RFU FAM211A (11726209_a_at) / Fold change /veh FAM211A (11726209_a_at) / RFU RGS16 (11746705_a_at) / Fold change /veh RGS16 (11746705_a_at) / RFU VCAN (11755009_s_at) / Fold change /veh VCAN (11755009_s_at) / RFU RHOB (11743442_s_at) / Fold change /veh RHOB (11743442_s_at) / RFU RGS16 (11720943_a_at) / Fold change /veh RGS16 (11720943_a_at) / RFU RGS16 (11720944_at) / Fold change /veh RGS16 (11720944_at) / RFU, VPS4B / Fold change vs veh, VPS4B / RFU, CREB1 / Fold change vs veh, CREB1 / RFU, DNAJC13 / Fold change vs veh, DNAJC13 / RFU, GNAQ / Fold change vs veh, GNAQ / RFU, CDK5R1 / Fold change vs veh, CDK5R1 / RFU, ZRANB3 / Fold change vs veh, ZRANB3 / RFU, CUL4A / Fold change vs veh, CUL4A / RFU, CCNY / Fold change vs veh, CCNY / RFU, UFL1 / Fold change vs veh, UFL1 / RFU, COG3 / Fold change vs veh, COG3 / RFU, DIAPH2 / Fold change vs veh, DIAPH2 / RFU, SKA2 / Fold change vs veh, SKA2 / RFU, AFF3 / Fold change vs veh, AFF3 / RFU, LMF1 / Fold change vs veh, LMF1 / RFU, IPO11 / Fold change vs veh, IPO11 / RFU, DFFB / Fold change vs veh, DFFB / RFU, FOXP1 / Fold change vs veh, FOXP1 / RFU, CARD8 / Fold change vs veh, CARD8 / RFU, STRN3 / Fold change vs veh, STRN3 / RFU, ADK / Fold change vs veh, ADK / RFU, RASSF2 / Fold change vs veh, RASSF2 / RFU, WIPF1 / Fold change vs veh, WIPF1 / RFU, LARP1B / Fold change vs veh, LARP1B / RFU, RASA1 / Fold change vs veh, RASA1 / RFU, RB1 / Fold change vs veh, RB1 / RFU, PPFIA1 / Fold change vs veh, PPFIA1 / RFU, MAT2A / Fold change vs veh, MAT2A / RFU, CCT5 / Fold change vs veh, CCT5 / RFU, WDR92 / Fold change vs veh, WDR92 / RFU, CUX1 / Fold change vs veh, CUX1 / RFU, TTC7A / Fold change vs veh, TTC7A / RFU, TMEM135 / Fold change vs veh, TMEM135 / RFU, DEPTOR / Fold change vs veh, DEPTOR / RFU, CPM / Fold change vs veh, CPM / RFU, DNAJB6 / Fold change vs veh, DNAJB6 / RFU, CACNA2D3 / Fold change vs veh, CACNA2D3 / RFU, DTX4 / Fold change vs veh, DTX4 / RFU, TFCP2 / Fold change vs veh, TFCP2 / RFU, GMCL1 /// GMCL1P1 / Fold change vs veh, GMCL1 /// GMCL1P1 / RFU, AEBP2 / Fold change vs veh, AEBP2 / RFU, SNHG1 /// SNORD22 /// SNORD25 /// SNORD26 /// SNORD27 /// SNORD28 /// SNORD29 /// SNORD31 / Fold change vs veh, SNHG1 /// SNORD22 /// SNORD25 /// SNORD26 /// SNORD27 /// SNORD28 /// SNORD29 /// SNORD31 / Fold change (Aza/veh), C12orf56 (ProbeSet 11735607_a_at) / Fold change (ACY-1035/veh), C12orf56 (ProbeSet 11735607_a_at) / Fold change (Aza/veh), FGFR1OP (ProbeSet 11751329_s_at) / Fold change (ACY-1035/veh), FGFR1OP (ProbeSet 11751329_s_at) / Fold change (Aza/veh), VPS36 (ProbeSet 11739960_a_at) / Fold change (ACY-1035/veh), VPS36 (ProbeSet 11739960_a_at) / RFU SYPL1 (11715823_x_at) / Fold change /veh SYPL1 (11715823_x_at) / RFU IGFBP7 (11715501_s_at) / Fold change /veh IGFBP7 (11715501_s_at) / RFU REEP3 (11722064_at) / Fold change /veh REEP3 (11722064_at) / RFU IGLL1 (11728026_x_at) / Fold change /veh IGLL1 (11728026_x_at): dose or concentration left out as unconfirmed
Details: MV-4-11 cells, 48 hours

## Nc1ncn([C@@H]2O[C@H](CO)[C@@H](O)[C@H]2O)c(=O)n1 [azacitidine]
  RFU VPS37D (11726825_at): 18.02 RFU
